Data: PubChem BioAssay AID2060622 (Molecular Pharmacology Branch, DTP, NCI, 2025)

Tested on: 242566-281-R-J2-PDC complex spheroid viability
Assay: Anticancer human tumor 242566-281-R-J2-PDC patient-derived pancreatic carcinoma cell line growth inhibition [CLK]
Details: for IC50: curve of first compound; for viability, T/C: stronger effect = lower value
How it was run: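 Multi-cell-type spheroids combined patient-derived tumor cells with HUVEC endothelial cells and human mesenchymal stem cells. Paired agents were dosed in half-log steps down from about clinical Cmax, or from 10 microM where Cmax was unknown.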
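Note: spheroids exposed to compounds for 7 days before readout.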
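Throughout, for viability, T/C: 100% = DMSO vehicle control wells.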

**Q.** With `C=CC(=O)Nc1cc(Nc2nccc(-c3cn(C)c4ccccc34)n2)c(OC)cc1N(C)CCN(C)C` + CNC(=O)c1ccc(Nc2nc(OC3CCCC3)c3c(-c4ccc5nc(C)oc5c4)c[nH]c3n2)c(OC)c1 as the molecule, how does the IC50 (second compound 0.0316 µM) read?
**A.** > 300 nM

**Q.** What about the IC50 (second compound 0.1 µM) of the same molecule?
**A.** > 300 nM

**Q.** What about the IC50 (second compound 0.316 µM) of the same molecule?
**A.** > 300 nM

**Q.** What about the IC50 (second compound 1 µM) of the same molecule?
**A.** > 300 nM

**Q.** And the IC50 (second compound 3.16 µM)?
**A.** 2.72 nM

**Q.** And the IC50 (second compound 10 µM)?
**A.** 3.17 nM

**Q.** And the viability, T/C (second compound 0.0316 µM, first compound 0.000949 µM)?
**A.** 83.7%

**Q.** What about the viability, T/C (second compound 0.0316 µM, first compound 0.003 µM) of the same molecule?
**A.** 97%

**Q.** And the viability, T/C (second compound 0.0316 µM, first compound 0.00949 µM)?
**A.** 101%

**Q.** What about the viability, T/C (second compound 0.0316 µM, first compound 0.03 µM) of the same molecule?
**A.** 108%

**Q.** What about the viability, T/C (second compound 0.0316 µM, first compound 0.0949 µM) of the same molecule?
**A.** 110%

**Q.** And the viability, T/C (second compound 0.0316 µM, first compound 0.3 µM)?
**A.** 92.8%

**Q.** What about the viability, T/C (second compound 0.1 µM, first compound 0.000949 µM) of the same molecule?
**A.** 96.1%

**Q.** And the viability, T/C (second compound 0.1 µM, first compound 0.003 µM)?
**A.** 81.7%

**Q.** What about the viability, T/C (second compound 0.1 µM, first compound 0.00949 µM) of the same molecule?
**A.** 80.1%

**Q.** What about the viability, T/C (second compound 0.1 µM, first compound 0.03 µM) of the same molecule?
**A.** 99.5%

**Q.** And the viability, T/C (second compound 0.1 µM, first compound 0.0949 µM)?
**A.** 95.5%

**Q.** What about the viability, T/C (second compound 0.1 µM, first compound 0.3 µM) of the same molecule?
**A.** 81.4%

**Q.** What about the viability, T/C (second compound 0.316 µM, first compound 0.000949 µM) of the same molecule?
**A.** 89.4%

**Q.** And the viability, T/C (second compound 0.316 µM, first compound 0.003 µM)?
**A.** 76%

**Q.** What about the viability, T/C (second compound 0.316 µM, first compound 0.00949 µM) of the same molecule?
**A.** 72.2%

**Q.** What about the viability, T/C (second compound 0.316 µM, first compound 0.03 µM) of the same molecule?
**A.** 77.6%

**Q.** And the viability, T/C (second compound 0.316 µM, first compound 0.0949 µM)?
**A.** 81.4%

**Q.** What about the viability, T/C (second compound 0.316 µM, first compound 0.3 µM) of the same molecule?
**A.** 80.2%

**Q.** What about the viability, T/C (second compound 1 µM, first compound 0.000949 µM) of the same molecule?
**A.** 69.7%

**Q.** And the viability, T/C (second compound 1 µM, first compound 0.003 µM)?
**A.** 59%

**Q.** What about the viability, T/C (second compound 1 µM, first compound 0.00949 µM) of the same molecule?
**A.** 58.9%

**Q.** What about the viability, T/C (second compound 1 µM, first compound 0.03 µM) of the same molecule?
**A.** 61.8%

**Q.** And the viability, T/C (second compound 1 µM, first compound 0.0949 µM)?
**A.** 63.7%

**Q.** And the viability, T/C (second compound 1 µM, first compound 0.3 µM)?
**A.** 57.5%

**Q.** And the viability, T/C (second compound 3.16 µM, first compound 0.000949 µM)?
**A.** 55.9%

**Q.** What about the viability, T/C (second compound 3.16 µM, first compound 0.003 µM) of the same molecule?
**A.** 50%

**Q.** What about the viability, T/C (second compound 3.16 µM, first compound 0.00949 µM) of the same molecule?
**A.** 45.7%

**Q.** And the viability, T/C (second compound 3.16 µM, first compound 0.03 µM)?
**A.** 51.9%

**Q.** What about the viability, T/C (second compound 3.16 µM, first compound 0.0949 µM) of the same molecule?
**A.** 46.4%

**Q.** And the viability, T/C (second compound 3.16 µM, first compound 0.3 µM)?
**A.** 48.8%

**Q.** And the viability, T/C (second compound 10 µM, first compound 0.000949 µM)?
**A.** 49.1%

**Q.** And the viability, T/C (second compound 10 µM, first compound 0.003 µM)?
**A.** 51.2%

**Q.** And the viability, T/C (second compound 10 µM, first compound 0.00949 µM)?
**A.** 51.1%

**Q.** And the viability, T/C (second compound 10 µM, first compound 0.03 µM)?
**A.** 47.7%

**Q.** And the viability, T/C (second compound 10 µM, first compound 0.0949 µM)?
**A.** 43.1%

**Q.** And the viability, T/C (second compound 10 µM, first compound 0.3 µM)?
**A.** 44.9%

**Q.** For `CC1(C)CCC(CN2CCN(c3ccc(C(=O)NS(=O)(=O)c4ccc(NCC5CCOCC5)c([N+](=O)[O-])c4)c(Oc4cnc5[nH]ccc5c4)c3)CC2)=C(c2ccc(Cl)cc2)C1` + CNC(=O)c1ccc(Nc2nc(OC3CCCC3)c3c(-c4ccc5nc(C)oc5c4)c[nH]c3n2)c(OC)c1, which IC50 (second compound 0.0316 µM) is on record?
**A.** > 10000 nM

**Q.** And the IC50 (second compound 0.1 µM)?
**A.** > 10000 nM

**Q.** And the IC50 (second compound 0.316 µM)?
**A.** 10000 nM

**Q.** What about the IC50 (second compound 1 µM) of the same molecule?
**A.** > 10000 nM

**Q.** What about the IC50 (second compound 3.16 µM) of the same molecule?
**A.** > 10000 nM

**Q.** What about the IC50 (second compound 10 µM) of the same molecule?
**A.** > 10000 nM

**Q.** And the viability, T/C (second compound 0.0316 µM, first compound 0.0316 µM)?
**A.** 80%

**Q.** What about the viability, T/C (second compound 0.0316 µM, first compound 0.1 µM) of the same molecule?
**A.** 95.8%

**Q.** What about the viability, T/C (second compound 0.0316 µM, first compound 0.316 µM) of the same molecule?
**A.** 113%

**Q.** What about the viability, T/C (second compound 0.0316 µM, first compound 1 µM) of the same molecule?
**A.** 123%

**Q.** What about the viability, T/C (second compound 0.0316 µM, first compound 3.16 µM) of the same molecule?
**A.** 115%

**Q.** What about the viability, T/C (second compound 0.0316 µM, first compound 10 µM) of the same molecule?
**A.** 96.4%

**Q.** And the viability, T/C (second compound 0.1 µM, first compound 0.0316 µM)?
**A.** 83%

**Q.** And the viability, T/C (second compound 0.1 µM, first compound 0.1 µM)?
**A.** 92%

**Q.** What about the viability, T/C (second compound 0.1 µM, first compound 0.316 µM) of the same molecule?
**A.** 97.2%

**Q.** What about the viability, T/C (second compound 0.1 µM, first compound 1 µM) of the same molecule?
**A.** 131%

**Q.** And the viability, T/C (second compound 0.1 µM, first compound 3.16 µM)?
**A.** 105%

**Q.** And the viability, T/C (second compound 0.1 µM, first compound 10 µM)?
**A.** 73.9%

**Q.** And the viability, T/C (second compound 0.316 µM, first compound 0.0316 µM)?
**A.** 87.3%

**Q.** And the viability, T/C (second compound 0.316 µM, first compound 0.1 µM)?
**A.** 96.6%

**Q.** And the viability, T/C (second compound 0.316 µM, first compound 0.316 µM)?
**A.** 72%

**Q.** What about the viability, T/C (second compound 0.316 µM, first compound 1 µM) of the same molecule?
**A.** 92.4%

**Q.** What about the viability, T/C (second compound 0.316 µM, first compound 3.16 µM) of the same molecule?
**A.** 84.8%

**Q.** What about the viability, T/C (second compound 0.316 µM, first compound 10 µM) of the same molecule?
**A.** 50%

**Q.** What about the viability, T/C (second compound 1 µM, first compound 0.0316 µM) of the same molecule?
**A.** 71.2%

**Q.** What about the viability, T/C (second compound 1 µM, first compound 0.1 µM) of the same molecule?
**A.** 68.4%

**Q.** And the viability, T/C (second compound 1 µM, first compound 0.316 µM)?
**A.** 69.7%

**Q.** And the viability, T/C (second compound 1 µM, first compound 1 µM)?
**A.** 73%

**Q.** What about the viability, T/C (second compound 1 µM, first compound 3.16 µM) of the same molecule?
**A.** 77.9%

**Q.** And the viability, T/C (second compound 1 µM, first compound 10 µM)?
**A.** 60.4%

**Q.** What about the viability, T/C (second compound 3.16 µM, first compound 0.0316 µM) of the same molecule?
**A.** 51.9%

**Q.** And the viability, T/C (second compound 3.16 µM, first compound 0.1 µM)?
**A.** 54%

**Q.** And the viability, T/C (second compound 3.16 µM, first compound 0.316 µM)?
**A.** 57.8%

**Q.** What about the viability, T/C (second compound 3.16 µM, first compound 1 µM) of the same molecule?
**A.** 61.8%

**Q.** And the viability, T/C (second compound 3.16 µM, first compound 3.16 µM)?
**A.** 66.3%

**Q.** What about the viability, T/C (second compound 3.16 µM, first compound 10 µM) of the same molecule?
**A.** 45.4%

**Q.** What about the viability, T/C (second compound 10 µM, first compound 0.0316 µM) of the same molecule?
**A.** 54.6%

**Q.** What about the viability, T/C (second compound 10 µM, first compound 0.1 µM) of the same molecule?
**A.** 49.2%

**Q.** And the viability, T/C (second compound 10 µM, first compound 0.316 µM)?
**A.** 54.3%

**Q.** And the viability, T/C (second compound 10 µM, first compound 1 µM)?
**A.** 55.3%

**Q.** And the viability, T/C (second compound 10 µM, first compound 3.16 µM)?
**A.** 60.2%

**Q.** What about the viability, T/C (second compound 10 µM, first compound 10 µM) of the same molecule?
**A.** 46.8%
